Source: patent publication US10067145B2, “Method for removing genomically unstable IPS cells and synthetic peptide used therefor” (TOAGOSEI CO., LTD., priority 2013, dated 2018)
No end group written: not given here.

Key:
[1] = test system: human iPS cell strain 201B2 (chromosome 12 trisomy); assay: Evaluation of calreticulin expression inducing activity of synthetic peptides (immunofluorescence antibody assay), genomically unstable iPS cells; assay type: cell-based; details: peptide 10 μM in mTeSR 1 medium, 5 days, medium replaced every day; anti-calreticulin antibody, confocal laser microscope
Source text: (§1) In the following Examples, iPS cells were used as an example of pluripotent stem cells. Specifically, cells used for tests were a genomically stable (specifically without a chromosome aberration) human iPS cell strain (clone: 201B7, hereinafter also merely referred to as 201B7) and a human iPS cell strain (clone: 201B2 hereinafter also merely referred to as 201B2) containing genomically unstable (specifically, chromosome 12 is triploid (trisomy)) cells. Both 201B7 and 201B2 are clones of iPS cells established from the same human fibroblasts (source: Takahashi K et al., Cell, 131, 861-872 (2007)). The iPS cells were provided by the Center for iPS Cell Research and Application, Kyoto University. […]
(§2) A primary antibody diluted solution prepared by adjusting a primary antibody, an anti-calreticulin monoclonal [FMC75] antibody (murine, available from Abeam, Cat No. ab22683, Lot No. GR56669-4), to a final concentration of 4×10^−3 mg/mL in 1% BSA/PBS (−) (PBS (−) containing 1% BSA) was added to the culture vessel of the iPS cells, and the mixture was left to stand overnight at 4° C. or 2 hours at room temperature. […] Thereafter, mounting was carried out with a DAPI (4′,6-diamidino-2-phenylindole)-containing mounting medium (available from Life Technologies) and a cover glass and fluorescence was observed under a confocal laser microscope. […]

[2] = test system: human iPS cell strain 201B7; assay: Evaluation of calreticulin expression inducing activity of synthetic peptides (immunofluorescence antibody assay), genomically stable iPS cells; assay type: cell-based; details: peptide 10 μM in mTeSR 1 medium, 5 days, medium replaced every day; anti-calreticulin antibody, confocal laser microscope
Source text: as §1, §2

**Q.** “KKRTLRKNDRKKR GG CRAKAGDPC (KKRTLRKNDRKKRGGCRAKAGDPC-NH2; cysteine pairing not given here) [sample 1, linear synthetic calreticulin expression inducing peptide, 24 residues]” was tested. Which “expression level of calreticulin in 201B2 (fluorescence of the label detecting calreticulin) compared to cells without addition of peptides” value [1] did it give?
**A.** The value was “significantly increased”.

**Q.** And the “expression level of calreticulin in 201B7 (fluorescence of the label detecting calreticulin) compared to cells without addition of peptides” value [2]?
**A.** The value was “almost no increase”.
